Assay results as given in BindingDB's records for doi:10.7270/Q2125R2H (University of Pittsburgh, 2007).

target: T1, M-phase inducer phosphatase 2 (Homo sapiens, UniProt P30305); assay: Cdc25B phosphatase inhibitors, dose response, biochemical, probe assessment (AID 676)
T1 sequence (P30305 whole entry): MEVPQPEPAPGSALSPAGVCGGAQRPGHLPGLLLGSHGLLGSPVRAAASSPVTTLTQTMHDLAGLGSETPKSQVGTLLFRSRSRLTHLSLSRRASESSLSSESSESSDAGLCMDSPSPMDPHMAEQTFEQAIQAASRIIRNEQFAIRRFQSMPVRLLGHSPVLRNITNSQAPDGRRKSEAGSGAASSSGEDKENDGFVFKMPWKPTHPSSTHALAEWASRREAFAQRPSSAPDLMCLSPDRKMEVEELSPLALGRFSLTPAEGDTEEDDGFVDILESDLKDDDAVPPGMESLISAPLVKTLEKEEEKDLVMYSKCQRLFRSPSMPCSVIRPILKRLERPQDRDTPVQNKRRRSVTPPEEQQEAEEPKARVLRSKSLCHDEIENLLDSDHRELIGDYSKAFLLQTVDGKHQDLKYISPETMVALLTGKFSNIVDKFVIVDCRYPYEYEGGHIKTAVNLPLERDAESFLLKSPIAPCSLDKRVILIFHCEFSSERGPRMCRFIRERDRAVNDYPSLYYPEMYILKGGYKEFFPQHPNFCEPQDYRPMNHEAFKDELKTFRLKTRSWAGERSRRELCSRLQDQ

Compound	IC50 [µM]
Cc1ccc(C)n1-c1cccc(C(=O)O)c1	> 50
O=C(Nc1ccc2nc(-c3ccco3)c(-c3ccco3)nc2c1)N1CCCCCC1	31.4
Cc1ccc2c(c1C)NC(C(=O)O)C1CC=CC21 (stereo not drawn)	15.9
Cn1ncnc2c(=O)n(C)c(=O)nc1-2	0.396
[O-]/[N+](=C\c1ccncc1)c1ccccc1	> 50
O=C1C=Cc2ccccc2C1=O [1,2-dihydronaphthalene-1,2-dione]	19
CCn1nc(-c2ccccc2)nc2c(=O)n(C)c(=O)nc1-2 [1-Ethyl-6-methyl-3-phenyl-1H-pyrimido[5,4-e][1,2,4]triazine-5,7-dione]	0.447
Cc1cc(C)n2c(SCC(=O)N3CCN(S(=O)(=O)c4ccc(Cl)cc4)CC3)nnc2n1 [1-[4-(4-chlorophenyl)sulfonyl-1-piperazinyl]-2-[(5,7-dimethyl-[1,2,4]triazolo[4,3-a]pyrimidin-3-yl)thio]ethanone]	> 50
CCn1nc(-c2cccs2)nc2c(=O)n(C)c(=O)nc1-2 [1-ethyl-6-methyl-3-thiophen-2-yl-pyrimido[5,4-e][1,2,4]triazine-5,7-dione]	0.552
O=C(Nc1ccccc1)c1ccc2nc(-c3ccco3)c(-c3ccco3)nc2c1 [2,3-di-2-furyl-N-phenyl-6-quinoxalinecarboxamide]	35.6
CC(C)Cn1c(N)c(C(=O)COC(=O)c2cc(-c3ccco3)nc3ccccc23)c(=O)n(C)c1=O [2-(2-furanyl)-4-quinolinecarboxylic acid [2-[4-amino-1-methyl-3-(2-methylpropyl)-2,6-dioxo-5-pyrimidinyl]-2-oxoethyl] ester]	46.6
CCOc1ccc(-c2cc3nc(C4CCN(C(=O)OC(C)(C)C)CC4)c(C(=O)O)cn3n2)cc1 [2-(4-ethoxyphenyl)-5-[1-[(2-methylpropan-2-yl)oxy-oxomethyl]-4-piperidinyl]-6-pyrazolo[1,5-a]pyrimidinecarboxylic acid]	> 50
COc1ccc(-c2cc3nc(C4CCN(C(=O)OC(C)(C)C)CC4)c(C(=O)O)cn3n2)cc1 [2-(4-methoxyphenyl)-5-[1-[(2-methylpropan-2-yl)oxy-oxomethyl]-4-piperidinyl]-6-pyrazolo[1,5-a]pyrimidinecarboxylic acid]	> 50
CCn1c(SCC(=O)Nc2nc3ccc(OC)cc3s2)nc2c1c(=O)n(C)c(=O)n2C [2-(7-Ethyl-1,3-dimethyl-2,6-dioxo-2,3,6,7-tetrahydro-1H-purin-8-ylsulfanyl)-N-(6-methoxy-benzothiazol-2-yl)-acetamide]	> 50
Cc1cccc(NC(=O)c2cc(NC(=O)C3CCCCC3C(=O)O)ccc2N2CCCCC2)c1 (stereo not drawn) [2-({[3-{[(3-methylphenyl)amino]carbonyl}-4-(1-piperidinyl)phenyl]amino}carbonyl)cyclohexanecarboxylic acid]	> 50
Cc1ccc(/C=C/C2=Cc3c(sc(NC(=O)CSc4nnc(N)[nH]4)c3C#N)C(C)(C)C2)o1 [2-[(5-azanyl-1H-1,2,4-triazol-3-yl)sulfanyl]-N-[3-cyano-7,7-dimethyl-5-[(E)-2-(5-methylfuran-2-yl)ethenyl]-6H-1-benzothiophen-2-yl]ethanamide]	46.9
N#Cc1c(N)sc(=S)c2c1CCN(Cc1ccccc1)C2 [3-Amino-7-benzyl-1-thioxo-5,6,7,8-tetrahydro-1H-thiopyrano[3,4-c]pyridine-4-carbonitrile]	4.99
CCCSc1nnc(NC(=O)c2sc3nc(-c4cccs4)ccc3c2N)s1 [3-amino-N-(5-propylsulfanyl-1,3,4-thiadiazol-2-yl)-6-thiophen-2-ylthieno[2,3-b]pyridine-2-carboxamide]	> 50
O=C1Nc2ccccc2SC(c2ccccc2)C1O (stereo not drawn) [3-hydroxy-2-phenyl-2,3-dihydro-1,5-benzothiazepin-4(5H)-one]	> 50
COc1ccc(Br)cc1C=c1sc2nc(-c3ccco3)nn2c1=O [5-[(5-bromanyl-2-methoxy-phenyl)methylidene]-2-(furan-2-yl)-[1,3]thiazolo[3,2-b][1,2,4]triazol-6-one]	14.8
CCOc1cc(/C=C(/C#N)c2ccc(F)cc2)ccc1OCc1ccc(C(=O)O)o1 [5-[[4-[(E)-2-cyano-2-(4-fluorophenyl)ethenyl]-2-ethoxyphenoxy]methyl]furan-2-carboxylic acid]	> 50
Cc1cccc(N2CCN(C(=O)Cc3c(C(=O)O)[nH]c4ccc(Cl)cc34)CC2)c1C [5-chloranyl-3-[2-[4-(2,3-dimethylphenyl)piperazin-1-yl]-2-oxidanylidene-ethyl]-1H-indole-2-carboxylic acid]	> 50
CCCCCNC(=O)c1ccc2c(=O)[nH]c3c(C(=O)NCC4CCCO4)sc(=S)n3c2c1 (stereo not drawn) [5-oxo-N3-(2-oxolanylmethyl)-N8-pentyl-1-sulfanylidene-4H-thiazolo[3,4-a]quinazoline-3,8-dicarboxamide]	> 50
O=C(c1cccs1)c1no[n+]([O-])c1C(=O)c1cccs1 [(5-oxidanidyl-4-thiophen-2-ylcarbonyl-1,2,5-oxadiazol-5-ium-3-yl)-thiophen-2-yl-methanone]	> 50
CCCCC[C@H](O)C=C[C@H]1C=CC(=O)[C@@H]1C/C=C\CCCC(=O)O [(Z)-7-[(1R,5S)-2-oxidanylidene-5-[(E,3S)-3-oxidanyloct-1-enyl]cyclopent-3-en-1-yl]hept-5-enoic acid]	> 50
CC1=C(/C=C/C(C)=C/C=C/C(C)=C/C(=O)O)C(C)(C)CCC1 [ALL-TRANS-RETINOIC ACID]	> 50
COCCCn1c(N)c(C(=O)NCCC(C)C)c2nc3ccccc3nc21 [MLS000041744]	> 50
CCOC(=O)c1ccc2c(c1)C1C=CCC1C(C(=O)O)N2 (stereo not drawn) [MLS-0025126.0001]	18.2
O=C(NC1(O)C(=O)c2ccccc2C1=O)c1ccccc1 [N-(2-hydroxy-1,3-dioxo-2-indenyl)benzamide]	12.6

The next lines start with the values.

IC50 [µM]	Compound
46.1	CCn1c(SCC(=O)Nc2ccc3c(c2)c2ccccc2n3CC)nnc1-c1ccco1 [MLS000050867]
46.8	COc1ccc(Cn2c(C)nc3c(c2=O)c2nc4ccccc4nc2n3Cc2ccco2)cc1 [MLS000079944]
35.8	Cc1ccc(-c2csc(NC(=O)c3ccno3)n2)cc1 [MLS000081820]
> 50	CC(C)Sc1nc2sc3c(c2c2nnc(SCC(=O)NCc4ccco4)n12)CCCC3 [MLS000082957]
> 50	Cc1cc(NC(=O)c2ccc(S(=O)(=O)N3CCCC3)cc2)nc2c1c(=O)oc1ccccc12 [MLS000091355]
> 50	FC(F)(F)c1ccc(N2CCOCC2)c(Nc2nc3ccccc3n3cnnc23)c1 [MLS000093276]
> 50	COC(=O)c1ccccc1NC(=O)CN1C(=O)C2CCCN2c2ncc(Cl)cc21 (stereo not drawn) [MLS000094302]
> 50	CCc1ccc(NC(=O)CSc2nc3ccccc3c(=O)n2CCN2CCOCC2)cc1 [MLS000095236]
13.7	Cc1c(N=c2c(=O)c3ccccc3c2=O)c(=O)n(-c2ccccc2)n1C [MLS000105950]
> 50	CCOc1ccc2noc3c2c1C(=O)c1ccccc1-3 [MLS000106837]
> 50	COc1ccc2noc3c2c1C(=O)c1ccccc1-3 [MLS000106874]
9.6	O=C(OC1CCCCC1)c1ccc2c(c1)C1C=CCC1C(C(=O)O)N2 (stereo not drawn) [SMR000019385]
31.5	CCCCn1c(NC(=O)c2ccccc2)c(C#N)c2nc3ccccc3nc21 [SMR000060333]
21.2	N#Cc1c(N2CCCC2)nc(N)c2c(N)nc(N3CCCC3)cc12 [SMR000061605]
